This note sets out measurements from US6503912B1, “Substituted guanidine derivatives” (Bayer Aktiengesellschaft, priority 1998, dated 2003).

Data set [1] is described as follows: logP determination by HPLC (EEC directive 79/831 Annex V. A8). The note with it: HPLC gradient method, acetonitrile/0.1% aqueous phosphoric acid.
Protocol: [logP=The logP values were determined in accordance with EEC directive 79/831 Annex V. A8 by HPLC (gradient method, acetonitrile/0.1% aqueous phosphoric acid]
Data set [2] concerns Mosquito larvae (Aedes aegypti). The data set can be described thus: Aedes Test. Type of data set: in vivo. Conditions: active compound concentration 0.0016%; after 4 hours. On the procedure: Solvent: 1000 parts by weight of methanol
To produce a suitable preparation of active compound, 1 part by weight of active compound is mixed with the stated amount of solvent, and the concentrate is diluted with water to the desired concentrations.
Mosquito larvae (Aedes aegypti) are placed into the preparation of active compound of the desired concentration.
After the desired period of time, the effect on the larvae is determined.

For data set [3], the system named is black bean aphid (Aphis fabae). The data set can be described thus: Aphis Test (Systemic Action). Type of data set: in vivo. Conditions: active compound concentration 0.01%, watering of Vicia faba, after 4 days. As to the method: Aphis Test (Systemic Action)
(§1) Solvent: 7 parts by weight of dimethylformamide
(§2) Emulsifier: 1 part by weight of alkylaryl polyglycol ether
(§3) To produce a suitable preparation of active compound, 1 part by weight of active compound is mixed with the stated amount of solvent, and the stated amount of emulsifier, and the concentrate is diluted with water to the desired concentration.
Bean plants (Vicia faba) which are heavily infested by the black bean aphid (Aphis fabae) are watered with in each case 20 ml of the preparation of active compound of the desired concentration so that the preparation of active compound penetrates into the soil without wetting the shoot. The active compound is taken up by the roots and passed on to the shoot.
After the desired period of time, the kill in % is determined. 100% means that all aphids have been killed; 0% means that none of the aphids has been killed.

Data set [4] relates to eggs of the onion fly (Hylemyia antiqua). The data set can be described thus: Hylemyia Test. Type of data set: in vivo. Conditions: active compound concentration 0.05%; artificial feed; after 7 days. On the procedure:
(§4) Solvent: 100 parts by weight of acetone
(§5) 1900 parts by weight of methanol
(§6) To produce a suitable preparation of active compound, 1 part by weight of active compound is mixed with the stated amount of solvent, and the concentrate is diluted with methanol to the desired concentration.
A stated amount of the preparation of active compound of the desired concentration is pipetted onto a standardized quantity of artificial feed. After the methanol has evaporated, about 20 eggs of the onion fly (Hylemyia antiqua) are placed on the feed.
After the desired period of time, the kill of the eggs or larvae in % is determined. 100% means that all animals have been killed; 0% means that none of the animals has been killed.

Data set [5] concerns larvae of the green rice leaf-hopper (Nephotettix cincticeps). The experiment in a line: Nephotettix Test. It counts as in vivo. The note with it: active compound concentration 0.1%; dipped rice seedlings; after 6 days. As to the method: as §1, §2, §3
Rice seedlings (Oryza sativa) are treated by being dipped into the preparation of active compound of the desired concentration and are populated with larvae of the green rice leaf-hopper (Nephotettix cincticeps) while the seedlings are still moist.
After the desired period of time, the kill in % is determined. 100% means that all leaf-hoppers have been killed; 0% means that none of the leaf-hoppers has been killed.

Data set [6] relates to mustard beetle larvae (Phaedon cochleariae). The experiment in a line: Phaedon larvae Test. Type of data set: in vivo. The note with it: active compound concentration 0.1%; dipped cabbage leaves; after 7 days. On the procedure:
as §1, §2
To produce a suitable preparation of active compound, 1 part by weight of active compound is mixed with the stated amount of solvent and the stated amount of emulsifier, and the concentrate is diluted with water to the desired concentration.
Cabbage leaves (Brassica oleracea) are treated by being dipped into the preparation of active compound of the desired concentration and are populated with mustard beetle larvae (Phaedon cochleariae) whilst the leaves are still moist.
After the desired period of time, the kill in % is determined. 100% means that all beetle larvae have been killed; 0% means that none of the beetle larvae has been killed.

Data set [7] has as its system larva (L2-L3) of the army worm (Spodoptera frugiperda). The experiment in a line: Spodoptera Frugiperda Test/artificial Feed. Type of data set: in vivo. Conditions: active compound concentration 0.05%; artificial feed; after 7 days. As to the method:
Spodoptera Frugiperda Test/arfificial Feed
as §4, §5, §6
A stated amount of the preparation of active compound of the desired concentration is pipetted onto a standardized quantity of artificial feed. After the methanol has evaporated, in each case one larva (L2-L3) of the army worm (Spodoptera frugiperda) is placed onto the feed, in 3 repetitions.
After the desired period of time, the kill in % is determined. 100% means that all animals have been killed; 0% means that none of the animals has been killed.

For a further data set, the system named is Aphis fabae. The data set can be described thus: Critical Concentration Test/root-systemic Action. It counts as in vivo. Conditions: 20 ppm in soil; broad beans; leaves populated after 7 days, evaluation after a further 6 days. On the procedure: Critical Concentration Test/root-systemic Action
Solvent: 4 parts by weight of acetone
as §2
To produce a suitable preparation of active compound, 1 part by weight of active compound is mixed with the stated amount of solvent, the stated amount of emulsifier is added and the concentrate is diluted with water to the desired concentration.
The preparation of active compound is mixed intimately with soil. The concentration of the active compound in the preparation is virtually immaterial, only the amount by weight of active compound per volume unit of soil, which is stated in ppm (=mg/l), matters. The treated soil is filled into pots which are planted with pregerminated broad beans. Thus, the active compound can be taken up from the soil by the plant roots and transported into the leaves.
After a further 6 days, evaluation is carried out by counting or estimating the dead animals. The root-systemic action of the active compound is deduced from the number of animals killed. It is 100% when all test animals have been killed and 0% when the number of live test insects is identical to that of the untreated control.

As for `O=C(OCN1CCN(Cc2ccc(Cl)nc2)C1=N[N+](=O)[O-])C1CC1` [Example 59], the “logP (pH = 2.3)” value in data set [1] was 1.57.

In the case of `CCOCN1CCN(Cc2ccc(Cl)nc2)C1=N[N+](=O)[O-]` [Example 4], the kill in data set [2], in data set [3], in data set [5], in data set [6] and in data set [7] was 100% each time. In data set [4], the “kill of the eggs or larvae” value is given as 100%. Also, in the data set with Aphis fabae, the “kill (root-systemic action)” value is listed as 100%.
